Measured values taken from US12364733B1, “Method for treating septic shock” (Inotrem, priority 2018, dated 2025).

Test system: septic shock patients
Test: Phase IIa clinical trial with nangibotide in septic shock patients: SOFA score evolution
Assay type: in vivo, human
Method: This was a randomized, double-blind, two-stage, placebo-controlled study. As described in FIG. 7, the study was composed of 2 stages with a similar treatment regimen, in which 0.3, 1.0 or 3.0 mg/kg/h of nangibotide (corresponding to peptide LR12, having an amino acid sequence as set forth in SEQ ID NO: 9, also known as motrem) was tested versus placebo. All patients with a diagnosis of septic shock were considered for study participation. All potential study patients underwent standard care management procedures. Patients with evidence of septic shock according to the Sepsis-3 definition (Singer et al, JAMA 2016) were considered for inclusion (i.e., patients suffering from sepsis and having (i) persisting hypotension requiring vasopressors to maintain their mean arterial pressure ≥65 mm Hg and (ii) a serum lactate level >2 mmol/L (18 mg/dL) despite adequate volume resuscitation).
After screening for eligibility, patients were randomized to one of the treatment arms. Then, they received either a 5 mg/kg loading dose of nangibotide over 15 minutes followed by a continuous intravenous (i.v.) infusion of nangibotide or a matching placebo on top of standard of care. Treatment with study drug was initiated as early as possible, but no later than 24 hours after the onset of septic shock, defined by the start of vasopressor therapy. Patients were treated until 12 (±2) hours after the resolution of their septic shock (defined as vasopressor withdrawal) with a maximum treatment duration of 5 days (120 hours).
Adverse events (AEs) were coded using the MedDRA dictionary version 18.1. Treatment-emergent adverse events (TEAEs) were summarized and listed. Analysis was performed in 49 septic shock patients. The demographic and baseline characteristics were summarized in a descriptive fashion within each population: categorical variables were summarized by contingency tables (frequencies and percentages). sTREM-1 levels at day 1 were also described (mean, standard deviation, standard error, median, quartiles and range, minimum and maximum values). Mortality rates were reported by frequency and percentage. For continuous endpoints, i.e., the sequential organ failure assessment (SOFA), missing data were imputed using LOCF (Last Observation Carry-Forward). For time-to-event analyses, i.e., duration of invasive mechanical ventilation (IMV), duration of continuous renal replacement therapy (CRRT), survival, censored data techniques were utilized. In addition, a sensitivity analysis of time to event data (except survival) was performed using censoring at maximum limit for the corresponding observation period (i.e., either day 28 or day 90). […] The following comparisons were made: each nangibotide dose arm to placebo, all nangibotide doses combined versus placebo, and dose-response using an ordinal trend test. Exploratory composite endpoint: incidence (number and proportion) of patients alive at day 28 and free of vasopressor, free of IMV and free of CRRT were summarized by treatment and compared between treatments with a Fisher's exact test. For pharmacodynamic markers, log transformed data were represented as percentage change from baseline at day 5 or End of Infusion (EOI) if end of infusion was stopped before day 5. […] “All nangibotide” refers to analyses obtained by pooling data from 0.3, 1 and 3 mg/kg/h nangibotide-treated groups.

[1] = patients with high sTREM-1 at baseline (above median 433 pg/mL), Day 1, 0.3 mg/kg/h
[2] = patients with high sTREM-1 at baseline (above median 433 pg/mL), Day 1, 1.0 mg/kg/h
[3] = patients with high sTREM-1 at baseline (above median 433 pg/mL), Day 1, 3.0 mg/kg/h
[4] = patients with high sTREM-1 at baseline (above median 433 pg/mL), Day 1, all nangibotide doses pooled
[5] = patients with high sTREM-1 at baseline (above median 433 pg/mL), Day 2, 0.3 mg/kg/h
[6] = patients with high sTREM-1 at baseline (above median 433 pg/mL), Day 2, 1.0 mg/kg/h
[7] = patients with high sTREM-1 at baseline (above median 433 pg/mL), Day 2, 3.0 mg/kg/h
[8] = patients with high sTREM-1 at baseline (above median 433 pg/mL), Day 2, all nangibotide doses pooled
[9] = patients with high sTREM-1 at baseline (above median 433 pg/mL), Day 3, 0.3 mg/kg/h
[10] = patients with high sTREM-1 at baseline (above median 433 pg/mL), Day 3, 1.0 mg/kg/h
[11] = patients with high sTREM-1 at baseline (above median 433 pg/mL), Day 3, 3.0 mg/kg/h
[12] = patients with high sTREM-1 at baseline (above median 433 pg/mL), Day 3, all nangibotide doses pooled
[13] = patients with high sTREM-1 at baseline (above median 433 pg/mL), Day 4, 0.3 mg/kg/h
[14] = patients with high sTREM-1 at baseline (above median 433 pg/mL), Day 4, 1.0 mg/kg/h
[15] = patients with high sTREM-1 at baseline (above median 433 pg/mL), Day 4, 3.0 mg/kg/h
[16] = patients with high sTREM-1 at baseline (above median 433 pg/mL), Day 4, all nangibotide doses pooled
[17] = patients with high sTREM-1 at baseline (above median 433 pg/mL), Day 5, 1.0 mg/kg/h
[18] = patients with low sTREM-1 at baseline (below median 433 pg/mL), Day 1, 0.3 mg/kg/h
[19] = patients with low sTREM-1 at baseline (below median 433 pg/mL), Day 1, 1.0 mg/kg/h
[20] = patients with low sTREM-1 at baseline (below median 433 pg/mL), Day 1, 3.0 mg/kg/h
[21] = patients with low sTREM-1 at baseline (below median 433 pg/mL), Day 1, all nangibotide doses pooled
[22] = patients with low sTREM-1 at baseline (below median 433 pg/mL), Day 2, 0.3 mg/kg/h
[23] = patients with low sTREM-1 at baseline (below median 433 pg/mL), Day 2, 1.0 mg/kg/h
[24] = patients with low sTREM-1 at baseline (below median 433 pg/mL), Day 2, 3.0 mg/kg/h
[25] = patients with low sTREM-1 at baseline (below median 433 pg/mL), Day 2, all nangibotide doses pooled
[26] = patients with low sTREM-1 at baseline (below median 433 pg/mL), Day 3, 0.3 mg/kg/h
[27] = patients with low sTREM-1 at baseline (below median 433 pg/mL), Day 3, 1.0 mg/kg/h

nangibotide (LQEEDAGEYGCM; TLT-1 peptide)
nangibotide efficacy by baseline sTREM-1 subgroup (patients with baseline sTREM-1 above the median (above 433 pg/mL), pharmacodynamic parameters, medical support, SOFA score): more pronounced | SOFA score evolution (change versus baseline, LOCF), LSMean (SE) [1]: 0.16 (0.60) | SOFA score, estimated difference (SE) vs. placebo [1]: 0.14 (0.90) | SOFA score evolution (change versus baseline, LOCF), LSMean (SE) [2]: −0.50 (0.59) | SOFA score, estimated difference (SE) vs. placebo [2]: −0.52 (0.89) | SOFA score evolution (change versus baseline, LOCF), LSMean (SE) [3]: −0.38 (0.51) | SOFA score, estimated difference (SE) vs. placebo [3]: −0.40 (0.84) | SOFA score evolution (change versus baseline, LOCF), LSMean (SE) [4]: −0.24 (0.33) | SOFA score, estimated difference (SE) vs. placebo [4]: −0.26 (0.74) | SOFA score evolution (change versus baseline, LOCF), LSMean (SE) [5]: −1.52 (0.80) | SOFA score, estimated difference (SE) vs. placebo [5]: −1.14 (1.21) | SOFA score evolution (change versus baseline, LOCF), LSMean (SE) [6]: −2.00 (0.80) | SOFA score, estimated difference (SE) vs. placebo [6]: −1.63 (1.19) | SOFA score evolution (change versus baseline, LOCF), LSMean (SE) [7]: −0.50 (0.69) | SOFA score, estimated difference (SE) vs. placebo [7]: −0.13 (1.13) | SOFA score evolution (change versus baseline, LOCF), LSMean (SE) [8]: −1.34 (0.44) | SOFA score, estimated difference (SE) vs. placebo [8]: −0.97 (1.00) | SOFA score evolution (change versus baseline, LOCF), LSMean (SE) [9]: −2.73 (0.89) | SOFA score, estimated difference (SE) vs. placebo [9]: −2.64 (1.34) | SOFA score evolution (change versus baseline, LOCF), LSMean (SE) [10]: −2.00 (0.89) | SOFA score, estimated difference (SE) vs. placebo [10]: −1.90 (1.32) | SOFA score evolution (change versus baseline, LOCF), LSMean (SE) [11]: −0.39 (0.77) | SOFA score, estimated difference (SE) vs. placebo [11]: −0.30 (1.25) | SOFA score evolution (change versus baseline, LOCF), LSMean (SE) [12]: −1.71 (0.49) | SOFA score, estimated difference (SE) vs. placebo [12]: −1.61 (1.11) | SOFA score evolution (change versus baseline, LOCF), LSMean (SE) [13]: −3.22 (0.94) | SOFA score, estimated difference (SE) vs. placebo [13]: −2.70 (1.41) | SOFA score evolution (change versus baseline, LOCF), LSMean (SE) [14]: −1.83 (0.93) | SOFA score, estimated difference (SE) vs. placebo [14]: −1.31 (1.39) | SOFA score evolution (change versus baseline, LOCF), LSMean (SE) [15]: −0.51 (0.81) | SOFA score, estimated difference (SE) vs. placebo [15]: 0.00 (1.31) | SOFA score evolution (change versus baseline, LOCF), LSMean (SE) [16]: −1.85 (0.52) | SOFA score, estimated difference (SE) vs. placebo [16]: −1.34 (1.16) | SOFA score evolution (change versus baseline, LOCF), LSMean (SE) (patients with high sTREM-1 at baseline (above median 433 pg/mL), Day 5, 0.3 mg/kg/h): −3.20 (0.90) | SOFA score, estimated difference (SE) vs. placebo (patients with high sTREM-1 at baseline (above median 433 pg/mL), Day 5, 0.3 mg/kg/h, 0.3 mg/kg): −2.85 (1.36) | SOFA score, estimated difference (SE) vs. placebo (patients with high sTREM-1 at baseline (above median 433 pg/mL), Day 5, 0.3 mg/kg/h, listed as nangibotide, 0.3 mg/kg): −2.85 | SOFA score evolution (change versus baseline, LOCF), LSMean (SE) [17]: −1.83 (0.90) | SOFA score, estimated difference (SE) vs. placebo [17]: −1.48 (1.34) | SOFA score evolution (change versus baseline, LOCF), LSMean (SE) (patients with high sTREM-1 at baseline (above median 433 pg/mL), Day 5, 3.0 mg/kg/h): −0.51 (0.78) | SOFA score, estimated difference (SE) vs. placebo (patients with high sTREM-1 at baseline (above median 433 pg/mL), Day 5, 3.0 mg/kg/h, 3 mg/kg): −0.16 (1.27) | SOFA score, estimated difference (SE) vs. placebo (patients with high sTREM-1 at baseline (above median 433 pg/mL), Day 5, 3.0 mg/kg/h, listed as nangibotide, 3 mg/kg): −0.16 | SOFA score evolution (change versus baseline, LOCF), LSMean (SE) (patients with high sTREM-1 at baseline (above median 433 pg/mL), Day 5, all nangibotide doses pooled): −1.85 (0.50) | dose response of SOFA score difference vs. placebo (patients with high sTREM-1 at baseline, 0.3 vs 3 mg/kg/h): inverse dose response | SOFA score evolution (change versus baseline, LOCF), LSMean (SE) [18]: −1.40 (0.80) | SOFA score, estimated difference (SE) vs. placebo [18]: 0.29 (1.13) | SOFA score evolution (change versus baseline, LOCF), LSMean (SE) [19]: −0.01 (0.88) | SOFA score, estimated difference (SE) vs. placebo [19]: 1.67 (1.20) | SOFA score evolution (change versus baseline, LOCF), LSMean (SE) [20]: −0.35 (1.06) | SOFA score, estimated difference (SE) vs. placebo [20]: 1.33 (1.33) | SOFA score evolution (change versus baseline, LOCF), LSMean (SE) [21]: −.059 (0.53) | SOFA score, estimated difference (SE) vs. placebo [21]: 1.10 (0.96) | SOFA score evolution (change versus baseline, LOCF), LSMean (SE) [22]: −2.99 (0.92) | SOFA score, estimated difference (SE) vs. placebo [22]: −0.86 (1.30) | SOFA score evolution (change versus baseline, LOCF), LSMean (SE) [23]: −1.62 (1.02) | SOFA score, estimated difference (SE) vs. placebo [23]: 0.51 (1.38) | SOFA score evolution (change versus baseline, LOCF), LSMean (SE) [24]: −1.87 (1.22) | SOFA score, estimated difference (SE) vs. placebo [24]: 0.26 (1.53) | SOFA score evolution (change versus baseline, LOCF), LSMean (SE) [25]: −2.16 (0.61) | SOFA score, estimated difference (SE) vs. placebo [25]: −0.03 (1.11) | SOFA score evolution (change versus baseline, LOCF), LSMean (SE) [26]: −2.68 (1.02) | SOFA score, estimated difference (SE) vs. placebo [26]: −0.57 (1.44) | SOFA score evolution (change versus baseline, LOCF), LSMean (SE) [27]: −1.51 (1.13) | SOFA score, estimated difference (SE) vs. placebo [27]: 0.61 (1.53)
